Target: T1, EF-Tu:GTP:aa-tRNA ternary complex (Escherichia coli, UniProt P0CE48, C138A/C256V/E349C)
T1 construct: made in house; host or cells: E. coli BL-21
Format: binding
Conditions: for effect of the inhibitor on fluorescence intensity in the assay: addition of inhibitor to the formed ternary complex, Ex 532/Em 665 nm
Experimental: FRET Assay (Assembly Fluorescence)
FRET measurements were done using Photon Technology International fluorescence spectrofluorometer with FeliX software. Cy3 fluorescence was monitored in the spectrum or time base mode at excitation/emission 549/565 nm. […] The slot parameters and photomultiplier voltage were adjusted to get a response in the range of 0.5-1.2×10^6 RFU for the Cy3 fluorescence scan at the 20-30 nM Phe-tRNA^Phe(Cy3) concentration and 4-5×10^4 RFU for Cy5 fluorescence scan (excitation/emission 633/665 nm) at the 300-400 nM Cy5-EF-Tu concentration. The titration of Phe-tRNA^Phe(Cy3) by Cy5-EF-Tu was typically done in presence of 100 μM GTP in a 150 μl volume of the same incubation buffer as used in the above mentioned gel retardation assay. During the assay (up to 120 minutes), the reaction mix also was supplemented with 1 mM ATP and 5 μg/ml of Phe-tRNA synthetase to prevent deacylation of Phe-tRNA^Phe(Cy3). The concentration of Phe-RNA^Phe(Cy3) was up to 30 nM and GTP:Cy5-EF-Tu was varied in range of 30-240 nM.
All FRET measurements were done using PTI (Photon Technology International) fluorescence spectrofluorometer with FeliX 1.42B software. The FRET was monitored in the time-base mode using the 532 nm excitation and 665 nm emission (suitable for the Cy5 dye). The slot parameters and photomultiplier voltage were adjusted to get a response in the range of 2.6-3×10^3 RFU for the Cy5 fluorescence at a 200 nM concentration of Cy5-labeled EF-Tu. Time-base titration experiments were typically carried out in a 150 μl black cuvette at 25 or 37° C. The Cy5 fluorescence was monitored at five second intervals for up to 2 hours. Cy5-labeled EF-Tu carrying the E348C mutation was added from a concentrated stock solution to reach the final concentration of 180-200 nM.
The 5× incubation buffer was 350 mM HEPES-KOH (pH 7.6), 260 mM NH4OAc, 40 mM Mg(OAc)2, 150 mM KCl, 7 mM DTT and 12.6% glycerol. The 1× incubation buffer in final reaction volume was also supplemented with 1 mM ATP and 5 μg/ml of Phe-tRNA synthetase, 7.2 mM phosphoenolpyruvate and 2.5 U/ml pyruvate kinase; a 40 μM stock of Cy3-labeled aminoacylated tRNA^Phe, a 30 μM stock of Cy3-labeled uncharged tRNA^Phe, a 110 μM stock of Cy5-labeled EF-Tu [C137A, C255V, E348C], a 5 mg/ml stock of Phe-tRNA synthetase, and a 10 mM stock in DMSO (7.97 mg/ml) of Kirromycin (FW 796.9).
The Cy5-labeled EF-Tu [180 nM] (GTP form) in a 300 μl volume was placed in 1× incubation buffer. The volume was split into two parts and measured in two sets at 25° C.
The Cy5-labeled EF-Tu [180 nM] (GTP form) in a 300 μl volume was placed in 1× incubation buffer. The reaction was split into two parts and supplemented with 100 μM GTP (Set I) or GDP (Set II). The fluorescence intensity was measured at 25° C.
The Cy5-labeled EF-Tu [320 nM] (GTP form) was in a 300 μl volume of the 1× incubation buffer. The reaction was supplemented with 100 μM GTP and split on two parts.

T1 sequence (P0CE48 2-394 C138A/C256V/E349C, one chain of several): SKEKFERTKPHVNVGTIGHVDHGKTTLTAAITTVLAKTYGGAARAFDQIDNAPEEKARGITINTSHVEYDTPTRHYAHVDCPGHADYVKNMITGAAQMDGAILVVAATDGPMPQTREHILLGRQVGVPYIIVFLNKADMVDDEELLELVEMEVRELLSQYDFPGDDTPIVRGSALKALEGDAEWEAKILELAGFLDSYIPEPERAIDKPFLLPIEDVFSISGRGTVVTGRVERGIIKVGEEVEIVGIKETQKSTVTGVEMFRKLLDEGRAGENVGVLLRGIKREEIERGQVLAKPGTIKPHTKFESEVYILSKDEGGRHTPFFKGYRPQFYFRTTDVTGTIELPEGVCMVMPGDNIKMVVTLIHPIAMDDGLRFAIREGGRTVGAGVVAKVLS

Compound | decrease in the Cy5 fluorescence of the formed complex (10-fold molar excess of GDP added to formed complex, Cy5-EF-Tu 180 nM, 100 μM GTP, Phe-tRNA^Phe(Cy3) 160 nM, 25° C., FIG. 12) | FRET response when Cy5-labeled EF-Tu was incubated with GDP (Cy5-EF-Tu 180 nM incubated with 100 μM GDP instead of GTP (plot 2 / set II), FIG. 12) | effect of the inhibitor on fluorescence intensity in the assay | decrease of FRET response after addition of kirromycin (kirromycin 80 μM, Cy5-labeled EF-Tu 180 nM (GTP form), Cy3-PhetRNA^Phe 160 nM, 25° C., FIG. 13)
Nc1nc2c(ncn2[C@@H]2O[C@H](COP(=O)(O)OP(=O)(O)O)[C@@H](O)[C@H]2O)c(=O)[nH]1 [GDP] | 60% | significantly lower | significantly reduces the fluorescence intensity | –
kirromycin | – | – | significantly reduces the fluorescence intensity | approximately 30%

From patent US10174358B2 (priority 2013, dated 2019)
